Results as given in paper PMC8774648, “Effects of Baicalein and Chrysin on the Structure and Functional Properties of β-Lactoglobulin” (Foods, 2022).
Values joined by “and” are separate entries in the source; they are usually repeats but may differ in a detail not shown here. Equal entries are not always repeated. Where two headings read alike, the source gives them in different places. Marks after values point to notes of the source that are not given here.

Legend:
β-lactoglobulin (BLG) [1] = molecular target: T1, β-lactoglobulin (BLG) (Bos taurus, UniProt P02754); experiment: Intrinsic fluorescence quenching of BLG by Bai/Chr (Stern–Volmer and double logarithmic equations); assay type: binding; conditions: for Ksv (Stern–Volmer quenching constant) / Kd: pH 6.8; for Kd: read-out: Ka (binding constant) (converted)
T1 construct: purchased Sigma–Aldrich Co. (St. Louis, MO, USA)
T1 sequence (P02754 17-178): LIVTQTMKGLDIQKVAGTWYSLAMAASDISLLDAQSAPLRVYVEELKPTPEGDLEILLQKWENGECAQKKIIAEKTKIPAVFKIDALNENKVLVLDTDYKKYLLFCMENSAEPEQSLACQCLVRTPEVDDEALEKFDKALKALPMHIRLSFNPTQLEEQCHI
Experimental: (§1) Intrinsic fluorescence spectroscopic test was measured on a F–7000 spectrophotometer (Hitachi, Japan) equipped with temperature controller according to the method described in the previous study. Briefly, 3 mL solution of BLG (20.0 µM) was titrated by continuously adding different amounts of Bai or Chr (0–20.0 µM). The fluorescence spectra were recorded at different temperatures (298 K, 304 K, and 310 K) with the excitation wavelength of 280 nm and the excitation and emission slit set at 2.5 nm. Moreover, synchronous fluorescence spectra were conducted by setting the wavelength intervals (λem–λex) at 15 nm and 60 nm, respectively. The 3D fluorescence spectra (molar ratios of BLG to Bai/Chr were 1:0 and 1:1) were recorded at excitation and emission wavelength range of 200−600 nm. All the fluorescence values were corrected to eliminate the internal filtering effect according to the previous method, and were used to evaluate the quenching mechanism of Bai/Chr binding to BLG by using the following equation [21]:(1) F0/F=1+Kqτ0[Q]=1+KSV[Q] where F and F0 are the fluorescence intensities of fluorophore with and without quencher; Ksv denotes the Stern–Volmer quenching constant; Kq is the quenching rate constant (Kq = Ksv/τ0), and τ0 is the average lifetime of the biomolecule in the absence of a quencher (τ0 = 10^−8 s); [Q] represents the experimental concentration of Bai/Chr.
For static fluorescence quenching mechanism, the binding constant (Ka) and the number of binding sites (n) could be determined by the following equation [22]:(2) logF0−F/F=nlogKa−nlog1/[Qt]−(F0−F)[Pt]/F0 where [Qt] and [Pt] are the concentrations of Bai/Chr and BLG, respectively.

β-lactoglobulin (BLG) [2] = molecular target: T1, β-lactoglobulin (BLG); experiment: Emulsifying ability and emulsifying stability of BLG
Experimental: Emulsifying ability (EA) and emulsifying stability (ES) were investigated by the method of Xiong et al. with slight modification. BLG solution (1 mg mL^−1) was added to Bai/Chr to form the solutions with different ratios of BLG to Bai/Chr (40:1, 30:1, 20:1, 10:1), and then soybean oil was added to form BLG solution containing 10% (v/v) oil. The emulsion was fully dispersed for 2 min at a rate of 7000 r min^−1 and repeated for three times. At 0 and 10 min, 30 µL of emulsion was extracted from the bottom of the sample and immediately added to 3 mL of 0.1% SDS solution. The absorbance of the sample was measured at 500 nm and recorded as A0 and A10, respectively. The EA (m^2 g^−1) and ES (min) were calculated according to the following equations:(11) EA (m^2 g^−1)=2×2.303/c×Φ×L×10^4×A0×D (12) ES (min)=A0/A0−A10×10 where c is the weight of the BLG per unit volume (g mL^−1), Φ is the volume fraction of the oil phase, L is the length of light path, and D is the dilution factor, D = 100.

β-lactoglobulin (BLG) [3] = molecular target: T1, β-lactoglobulin (BLG); experiment: Protein surface hydrophobicity (PSH) of BLG with ANS probe
Experimental: PSH of BLG in the presence or absence of Bai or Chr was determined using ANS as a fluorescent probe. In the BLG solution (20.0 µM) alone or Bai/Chr–BLG mixture the ANS solution (5 mM) was continuously added until the fluorescence intensity of the mixture remained constant. The fluorescence intensity of the sample was recorded in the wavelength range of 400–600 nm upon 380 nm excitation. The PSH values were calculated by the following equations [26]:(5) [ANS]bound=F/B (6) [ANS]free=[ANS]total−[ANS]bound (7) F/[ANS]free=−F/Kdapp−Fmax/Kdapp (8) PSH=Fmax/[BLG]Kdapp where [ANS]free and [ANS]bound are the concentration of free and bound ANS, respectively. Kdapp is the apparent dissociation constant of ANS, Fmax is the maximum fluorescence intensity at saturating ANS concentration and B is the proportionality coefficient.

β-lactoglobulin (BLG) [4] = molecular target: T1, β-lactoglobulin (BLG); experiment: CD spectra, secondary structure contents of BLG
Experimental: The CD spectra in the range of 200–250 nm were obtained from a CD spectrometer (MOS 450, Bio–Logic, Claix, France) equipped with 1.0 mm path length cuvette under the constant nitrogen flush. The solutions were prepared with molar ratios of Bai or Chr to BLG of 0:1, 1:1, and 2:1, respectively. The contents of secondary structure of BLG were determined based on our previously reported study.

β-lactoglobulin (BLG) [5] = molecular target: T1, β-lactoglobulin (BLG); experiment: Three-dimensional fluorescence spectra of BLG with Bai/Chr; conditions: c(BLG) = 20.0 µM, c(Bai/Chr) = 20.0 μM
Experimental: as §1

β-lactoglobulin (BLG) [6] = molecular target: T1, β-lactoglobulin (BLG); experiment: Foaming ability and foaming stability of BLG
Experimental: Foaming ability (FA) and foaming stability (FS) were measured as described by Wang et al. with some modifications. A certain amount of BLG solution (1.0 mg mL^−1) was added to a 100 mL cylinder, and Bai or Chr was added to form solutions with different ratios of BLG to Bai or Chr (40:1, 30:1, 20:1, 10:1). The initial height H0 of the foam was recorded. The foam was then sheared at 10,000 rpm in a high-speed dispersion machine for 1 min and the height of the foam was recorded as H1. The height of the foam was recorded as H2 30 min later. The FA (%) and FS (%) were calculated according to the following equations:(9) FA (%)=H1−H0/H0×100 (10) FS (%)=H2−H0/H1−H0×100

β-lactoglobulin (BLG) [7] = molecular target: T1, β-lactoglobulin (BLG); experiment: Free sulfhydryl (SH) content of BLG (DTNB); conditions: Bai/Chr 0 to 20.0 µM, BLG 20.0 µM
Experimental: The content of free SH was determined by spectrophotometry according to the report by Takić et al. with minor modifications. Briefly, Bai/Chr concentrations were varied from 0 to 20.0 µM, and BLG was kept at 20.0 µM. Then the two solutions were incubated with 10.0 mM DTNB in 50 mM PBS (pH 6.8) for 30 min at room temperature. The absorbance of the sample at 412 nm was recorded and the molar extinction coefficient (14,360 M^−1 cm^−1) was obtained from the standard curve of L-cysteine, which was used to calculate the number of total sulfhydryl groups per gram of protein.

β-lactoglobulin (BLG) [8] = molecular target: T1, β-lactoglobulin (BLG); experiment: Thermodynamic parameters of Bai/Chr–BLG binding (Van't Hoff equation)
Experimental: In order to determine the primary forces between BLG and Bai/Chr, thermodynamic parameters were calculated using the following equations [23]:(3) logKa=−ΔH°/2.303RT+ΔS°/2.303R (4) ΔG°=ΔH°−TΔS° where R and T represent gas constant (8.314 J mol^−1 K^−1) and temperature (298, 304, and 310 K), respectively. Enthalpy change (ΔH°) and entropy change (ΔS°) of interaction between ligands and biomolecules are the main criteria for evaluating acting force, and free energy (ΔG°) is the main criteria for estimating the spontaneity of interaction.

[9] = molar ratio of Bai/Chr to BLG 1:1
[10] = molar ratio of Bai/Chr to BLG 2:1
[11] = molar ratio of Bai/Chr to BLG 2:1, listed as Bai–BLG

SMILES: O=c1cc(-c2ccccc2)oc2cc(O)c(O)c(O)c12 [Bai, baicalein]
- n (number of binding sites) (β-lactoglobulin (BLG) [1]; T = 298 K): 1.03 ± 0.03
- Ksv (Stern–Volmer quenching constant) (β-lactoglobulin (BLG) [1]; T = 298 K): 5.75 ± 0.01 ^a ×10^4 L mol^−1
- Kd (β-lactoglobulin (BLG) [1]; T = 298 K): 3.6 µM
- n (number of binding sites) (β-lactoglobulin (BLG) [1]; T = 304 K): 1.23 ± 0.02
- Ksv (Stern–Volmer quenching constant) (β-lactoglobulin (BLG) [1]; T = 304 K): 4.76 ± 0.03 ^b ×10^4 L mol^−1
- Kd (β-lactoglobulin (BLG) [1]; T = 304 K): 3.75 µM
- n (number of binding sites) (β-lactoglobulin (BLG) [1]; T = 310 K): 1.31 ± 0.03
- Ksv (Stern–Volmer quenching constant) (β-lactoglobulin (BLG) [1]; T = 310 K): 4.47 ± 0.06 ^c ×10^4 L mol^−1
- Kd (β-lactoglobulin (BLG) [1]; T = 310 K): 3.92 µM
- BLG fluorescence quenching (β-lactoglobulin (BLG) [1]; after 10 times titration, 298 K, c(BLG) = 20 µM): 63.2%
- n (number of binding sites) (β-lactoglobulin (BLG) [1]; general statement for the three temperatures): approximately 1
- effect on emulsifying stability (ES) of BLG (β-lactoglobulin (BLG) [2]; BLG to Bai/Chr 40:1 to 10:1): promoted the enhancement of ES
- effect on emulsifying ability (EA) of BLG (β-lactoglobulin (BLG) [2]; with the increase of Bai or Chr concentration (BLG to Bai/Chr 40:1 to 10:1)): slightly improved
- F max (maximum fluorescence intensity at saturating ANS) (β-lactoglobulin (BLG) [3]; molar ratio 1:1): 154.31 ± 3.09 ^ab
- PSH (protein surface hydrophobicity) (β-lactoglobulin (BLG) [3]; molar ratio 1:1): 260.66 ± 5.21 ^b
- Reduction Rate of PSH (β-lactoglobulin (BLG) [3]; molar ratio 1:1, versus BLG alone): 20.87 ± 0.42 ^d %
- F max (maximum fluorescence intensity at saturating ANS) (β-lactoglobulin (BLG) [3]; molar ratio 2:1): 120.27 ± 2.41 ^c
- PSH (protein surface hydrophobicity) (β-lactoglobulin (BLG) [3]; molar ratio 2:1): 200.45 ± 4.01 ^d
- Reduction Rate of PSH (β-lactoglobulin (BLG) [3]; molar ratio 2:1, versus BLG alone): 39.15 ± 0.78 ^c %
- Random Coil content of BLG (β-lactoglobulin (BLG) [4]; [9]): 26.47 ± 0.41 ^b %
- α-Helix content of BLG (β-lactoglobulin (BLG) [4]; [9]): 14.12 ± 0.70 ^c %
- β-Sheet content of BLG (β-lactoglobulin (BLG) [4]; [9]): 36.25 ± 0.25 ^b %
- β-Turn content of BLG (β-lactoglobulin (BLG) [4]; [9]): 23.16 ± 0.12 ^a %
- Random Coil content of BLG (β-lactoglobulin (BLG) [4]; [10]): 25.26 ± 033 ^c %
- β-Turn content of BLG (β-lactoglobulin (BLG) [4]; [10]): 24.77 ± 0.54 ^b %
- α-Helix content of BLG (β-lactoglobulin (BLG) [4]; [11]): 15.85% and 15.85 ± 0.93 ^b %
- β-Sheet content of BLG (β-lactoglobulin (BLG) [4]; [11]): 34.12% and 34.12 ± 0.34 ^d %
- fluorescence intensity of Peak 2 (3D fluorescence) (β-lactoglobulin (BLG) [5]; free BLG 430.6): 206.8
- fluorescence intensity of Peak 1 (3D fluorescence) (β-lactoglobulin (BLG) [5]; free BLG 522.1): 395.4
- increase of foaming stability (FS) of BLG (β-lactoglobulin (BLG) [6]; compared with BLG alone, molar ratio of BLG to Bai/Chr 10:1): 80.64%
- increase of foaming ability (FA) of BLG (β-lactoglobulin (BLG) [6]; compared with FA of free BLG (25.2%), molar ratios of BLG to Bai/Chr changed from 40:1 to 10:1): 18.08%
- effect on contents of free SH group of BLG (β-lactoglobulin (BLG) [7]): gradually weakened
- ΔG° (free energy) (β-lactoglobulin (BLG) [8]; T = 298 K): -31.05 kJ/mol
- ΔG° (free energy) (β-lactoglobulin (BLG) [8]; T = 304 K): -31.56 kJ/mol
- ΔG° (free energy) (β-lactoglobulin (BLG) [8]; T = 310 K): -32.07 kJ/mol
- ΔH° (enthalpy change) (β-lactoglobulin (BLG) [8]; from Ka at 298, 304 and 310 K): -5.59 kJ/mol
- ΔS° (entropy change) (β-lactoglobulin (BLG) [8]; from Ka at 298, 304 and 310 K): 85.44 J mol^−1 K^−1
